Source: patent US20170152258A9, “Substituted Pyridopyrazines as Syk Inhibitors” (HUTCHISON MEDIPHARMA LIMITED, priority 2012, published 2017)

Biological target: Syk kinase (Homo sapiens, UniProt P43405)
Assay: SYK Enzymatic Assay (Z-LYTE Tyr 2 peptide)
Assay type: biochemical
Settings: 8 concentrations 1 μM down to 0.0003 μM
Experimental: Syk kinase assay are performed in vitro using Kit-Tyr 2 Peptide (Invitrogen, Cat. No. PV3191) and in a 384-well assay plate. […] The 384-well assay plate (Corning, Cat. No. 3575) is mixed and incubated at room temperature for 1 hour. 10 μL of the Development Solution (prepared by diluting Development Reagent A (Cat. No. PV3297) to 1/32 with Development Buffer (Cat. No. PV3127)) is then added to each well, mixed and incubated at room temperature for another 1 hour. The reactions are then stopped by adding 10 μL of the Stop Reagent (Invitrogen, Cat. No. PV3094), and the plate is read with Wallac 1420 VICTOR^3 Multilabel Counter (PerkinElmer™) at 445 nm and 520 nm fluorescence. All compounds are tested at 8 concentrations (1 μM down to 0.0003 μM) using a 1:3 serial dilution scheme.

## NC(=O)N1CCO[C@H](COc2nc(-c3ccc4[nH]ncc4c3)cc3nccnc23)C1 [Cmpd 242]
  IC50: 111 nM

## OC1CCC(Oc2nc(-c3ccc(N4CCOCC4)cc3)cc3nccnc23)CC1 (stereo not shown) [Compound 1, 4-(7-(4-morpholinophenyl)pyrido[4,3-b]pyrazin-5-yloxy)cyclohexanol]
  IC50: 270 nM

## c1cnc2c(OCCc3cn[nH]c3)nc(-c3ccc(N4CCOCC4)cc3)cc2n1 [Compound 2, 4-(4-(5-(2-(1H-pyrazol-4-yl)ethoxy)pyrido[3,4-b]pyrazin-7-yl)phenyl)morpholine]
  IC50: 552 nM

## NC(=O)c1ccc(Oc2nc(-c3ccc(N4CCOCC4)cc3)cc3nccnc23)cc1 [Compound 3, 4-(7-(4-morpholinophenyl)pyrido[4,3-b]pyrazin-5-yloxy)benzamide]
  IC50: 459 nM

## O=C1CCC(COc2nc(-c3ccc(N4CCOCC4)cc3)cc3nccnc23)CN1 (stereo not shown) [Compound 4, 5-(((7-(4-morpholinophenyl)pyrido[3,4-b]pyrazin-5-yl)oxy)methyl)piperidin-2-one]
  IC50: 160 nM

## CN1CCN(c2ccc(-c3cc4nccnc4c(OCC4CCC(=O)NC4)n3)cc2)CC1 (stereo not shown) [Compound 5]
  IC50: 172 nM

## CS(=O)(=O)N1CCO[C@H](COc2nc(-c3ccc(C4CCNCC4)cc3)cc3nccnc23)C1 [Compound 10, (S)-4-(methylsulfonyl)-2-(((7-(4-(piperidin-4-yl)phenyl)pyrido[3,4-b]pyrazin-5-yl)oxy)methyl)morpholine]
  IC50: 18 nM

## CS(=O)(=O)N1CCO[C@H](COc2nc(-c3ccc(OC(F)F)cc3)cc3nccnc23)C1 [Compound 34]
  IC50: 227 nM

## COc1ccc(-c2cc3nccnc3c(OC[C@@H]3CN(S(C)(=O)=O)CCO3)n2)cc1F [Compound 35]
  IC50: 131 nM

## CS(=O)(=O)N1CCO[C@H](COc2nc(-c3ccc(N4CCCC4)cc3)cc3nccnc23)C1 [Compound 37]
  IC50: 40 nM

## CS(=O)(=O)N1CCO[C@H](COc2nc(-c3ccc(Cl)cc3)cc3nccnc23)C1 [Compound 40]
  IC50: 338 nM

## Cc1ccc(-c2cc3nccnc3c(OC[C@@H]3CN(S(C)(=O)=O)CCO3)n2)cc1 [Compound 41]
  IC50: 138 nM

## CS(=O)(=O)N1CCO[C@H](COc2nc(-c3cnn(C4CCOCC4)c3)cc3nccnc23)C1 [Compound 42]
  IC50: 139 nM

## CS(=O)(=O)N1CCO[C@H](COc2nc(-c3ccc(F)cc3)cc3nccnc23)C1 [Compound 44]
  IC50: 324 nM

## CS(=O)(=O)N1CCO[C@H](COc2nc(-c3ccc(C#N)cc3)cc3nccnc23)C1 [Compound 45]
  IC50: 846 nM

## Cn1cc(-c2cc3nccnc3c(OC[C@@H]3CN(S(C)(=O)=O)CCO3)n2)cn1 [Compound 46]
  IC50: 192 nM

## CNc1ccc(-c2cc3nccnc3c(OC[C@@H]3CN(C(C)=O)CCO3)n2)cc1 [Compound 47]
  IC50: 122 nM

## CN(C)S(=O)(=O)N1CCO[C@H](COc2nc(-c3ccc(N4CCOCC4)cc3)cc3nccnc23)C1 [Compound 56]
  IC50: 121 nM

## CN(C)c1ccc(-c2cc3nccnc3c(OC[C@@H]3CN(C(=O)CCc4cccnc4)CCO3)n2)cc1 [Compound 79]
  IC50: 231 nM

## CN(C)c1ccc(-c2cc3nccnc3c(OC[C@@H]3CN(C(=O)Cc4cccnc4)CCO3)n2)cc1 [Compound 80]
  IC50: 107 nM

## CN(C)c1ccc(-c2cc3nccnc3c(OC[C@@H]3CN(C(=O)CCCC#N)CCO3)n2)cc1 [Compound 81]
  IC50: 166 nM

## CC(C)S(=O)(=O)N1CCO[C@H](COc2nc(-c3ccc(N4CCOCC4)cc3)cc3nccnc23)C1 [Compound 82]
  IC50: 113 nM

## CN(C)c1ccc(-c2cc3nccnc3c(OC[C@@H]3CN(C(=O)CCn4ccnc4)CCO3)n2)cc1 [Compound 85]
  IC50: 283 nM

## CN(C)c1ccc(-c2cc3nccnc3c(OC[C@@H]3CN(S(=O)(=O)C4CCCCC4)CCO3)n2)cc1 [Compound 91]
  IC50: 474 nM

## CN(C)c1ccc(-c2cc3nccnc3c(OC[C@@H]3CN(S(=O)(=O)Cc4cccc(F)c4)CCO3)n2)cc1 [Compound 93]
  IC50: 808 nM

## CN(C)c1ccc(-c2cc3nccnc3c(OC[C@@H]3CN(C(=O)C4CC4(F)F)CCO3)n2)cc1 (stereo partly shown) [Compound 96]
  IC50: 134 nM

## CN(C)c1ccc(-c2cc3nccnc3c(OC[C@@H]3CN(C(=O)C4(C#N)CC4)CCO3)n2)cc1 [Compound 97]
  IC50: 144 nM

## CN(C)c1ccc(-c2cc3nccnc3c(O[C@H]3CCOC3)n2)cc1 [Compound 106]
  IC50: 130 nM

## CN(C)c1ccc(-c2cc3nccnc3c(OC3CCOCC3)n2)cc1 [Compound 107]
  IC50: 919 nM

## COCCNc1ccc(-c2cc3nccnc3c(OC[C@@H]3CN(C(C)=O)CCO3)n2)cc1 [Compound 114]
  IC50: 122 nM

## CNS(=O)(=O)CCN1CCO[C@H](COc2nc(-c3ccc(N(C)C)cc3)cc3nccnc23)C1 [Compound 128]
  IC50: 477 nM

## CN(C)CCOc1cccc(-c2cc3nccnc3c(OC[C@@H]3CN(S(C)(=O)=O)CCO3)n2)c1 [Compound 130]
  IC50: 454 nM

## COc1ccc(-c2cc3nccnc3c(OC[C@@H]3CN(C(C)=O)CCO3)n2)cc1OC [Compound 132]
  IC50: 109 nM

## COc1cc(-c2cc3nccnc3c(OC[C@@H]3CN(C(C)=O)CCO3)n2)ccc1OC(C)C [Compound 147]
  IC50: 115 nM

## CC(=O)N1CCO[C@H](COc2nc(-c3ccc(C(C)C)cc3)cc3nccnc23)C1 [Compound 160]
  IC50: 102 nM

## CC(=O)N1CCO[C@H](COc2nc(-c3ccc(C4CCNCC4)cc3)cc3nccnc23)C1 [Compound 162]
  IC50: 151 nM

## CN(C)c1ccc(-c2cc3nccnc3c(OCC3CCCCO3)n2)cc1 (stereo not shown) [Compound 167]
  IC50: 405 nM

## CN(C)c1ccc(-c2cc3nccnc3c(OCC3CCCO3)n2)cc1 (stereo not shown) [Compound 168]
  IC50: 211 nM

## CS(=O)(=O)N1CCC(c2ccc(-c3cc4nccnc4c(OCC4CCCCO4)n3)cc2)CC1 (stereo not shown) [Compound 169]
  IC50: 272 nM

## CS(=O)(=O)N1CCC(c2ccc(-c3cc4nccnc4c(OCC4CCCO4)n3)cc2)CC1 (stereo not shown) [Compound 170]
  IC50: 182 nM

## CC(=O)N1CCO[C@H](COc2nc(-c3ccc4c(c3)CC(=O)N4C)cc3nccnc23)C1 [Compound 171]
  IC50: 458 nM

## CC(=O)N1CCO[C@H](COc2nc(-c3cnc(N(C)C)c(C)c3)cc3nccnc23)C1 [Compound 174]
  IC50: 816 nM

## CS(=O)(=O)N1CCN(c2ccc(-c3cc4nccnc4c(O[C@@H]4CCCOC4)n3)cc2)CC1 [Compound 179]
  IC50: 190 nM

## CS(=O)(=O)N1CCC(c2ccc(-c3cc4nccnc4c(O[C@@H]4CCCOC4)n3)cc2)CC1 [Compound 180]
  IC50: 177 nM

## CC(=O)N1CCO[C@H](COc2nc(-c3ccc(N4CCNCC4)c(C)c3)cc3nccnc23)C1 [Compound 182]
  IC50: 110 nM

## CC(C)c1ccc(-c2cc3nccnc3c(OC[C@@H]3CN(S(N)(=O)=O)CCO3)n2)cc1 [Compound 187]
  IC50: 109 nM

## CC(=O)N1CCC(c2ccc(-c3cc4nccnc4c(O[C@@H]4CCCOC4)n3)cc2)CC1 [Compound 191]
  IC50: 115 nM

## Clc1cc(-c2cc3nccnc3c(O[C@@H]3CCOC3)n2)ccc1N1CCOCC1 [Compound 194]
  IC50: 136 nM

## CNC(=O)N1CCO[C@H](COc2nc(-c3ccc4[nH]ncc4c3)cc3nccnc23)C1 [Compound 204]
  IC50: 126 nM

## CC(=O)N1CCOC(C(C)Oc2nc(-c3ccc(N(C)C)cc3)cc3nccnc23)C1 (stereo not shown) [Compound 233]
  IC50: 386 nM

## CC(Oc1nc(-c2ccc(N(C)C)cc2)cc2nccnc12)C1CN(C(N)=O)CCO1 (stereo not shown) [Compound 234]
  IC50: 193 nM

## CNC(=O)N1CCOC(C(C)Oc2nc(-c3ccc(N(C)C)cc3)cc3nccnc23)C1 (stereo not shown) [Compound 235]
  IC50: 212 nM
